Data on four compounds can be found in patent EP0062319A1, “3-Methyl-1-(2-(3-naphthyloxy)-ethyl)-2-pyrazolin-5-one for the treatment of the metastasis and growth of tumour cells” (BAYER AG, priority 1981, dated 1982).

In one experiment the test system is Metastase. The following applies: literature, cited from earlier work.
A further experiment deals with B-16a-Melanom-Zellen. Particulars: literature; metastasis induced by intravenous B-16a melanoma cells; cited from earlier work.
The subject of experiment [1] is B-16a-amelanotischen Melanom-Zellen. Description: Metastasis of tail-vein injected B-16a melanoma cells (lung tumour colonies) in mice. Format: in vivo, C57BL/6J Mäuse. The following applies: Theophyllin 200 µg injected 1 h before the tumour cells; 5 x 10^4 cells i.v.; mean ± SEM, n = 6. An excerpt:
Wie bereits weiter oben festgestellt wurde, ist die Metastase […], die durch eine Reihe komplizierter Vorgänge dargestellt wird. Gegenwärtig finden zwei "Modell"-Systeme für die Untersuchung der in vivo-Metastase verbreitete Anwendung. Das erste Modellsystem umfaßt die subkutane Injektion der Tumorzellen in das Tier. Die subkutane Injektion der Tumorzellen und anschließende Entwicklung eines Primärtumors, gefolgt von spontaner Metastase, wird als "volle" Metastase betrachtet. Ein anderes Modellsystem umfaßt die Injektion der Tumorzellen durch die Schwanzvene. In Anbetracht der Komplexität der Metastase gilt die Schwanzvenen-Injektion als künstliches und nur partielles Modellsystem, da es nur die Vorgänge während des letzteren Teils der Metastase wiedergibt. Das Schwanzvenen-Modellsystem gilt jedoch auch als außerordentlich günstig im Hinblick auf eine Standardisierung der Versuchsbedingungen [vgl."Methods in Cancer Research", Kapitel VII, Academic Press, Inc., 1978].
Als Kontrolltiere wurden (unbehandelte) C57B1/6J-Mäuse nach folgender Arbeitsweise auf volle Metastase untersucht. Zellsuspensionen der B-16 - und 3LL-Karzinom-Zellen, die wie oben unter A und B beschrieben erhalten worden waren, wurden subkutan in die rechte Achselhöhlenregion der männlichen C57BL/6J-Mäuse injiziert (0,66 mm- = 26 gauge -Nadel; 0,2 ml). Injiziert wurden verschiedene Mengen der Zellsuspensionen im Bereich von 1 x 10^5 bis 1 x 10^6 Zellen. Versuche zur partiellen Metastase wurden in der Weise durchgeführt, daß Tumorzellen über die Schwanzvene in die (unbehandelten) Kontroll-Mäuse injiziert wurden. Die Tiere wurden unter identischen Bedingungen der Temperatur, Lichteinwirkungsdauer, Ernährung etc. gehalten. Nach einem Beobachtungszeitraum von 17 bis 30 Tagen wurden die für die volle Metastase und für die partielle Metastase verwendeten Tiere getötet, und die Lungen, Leber, Nieren, Milz und Gehirn-Gewebe wurde entnommen.
Das entnommene Gewebe wurde in Bouin-Lösung fixiert.
Die Zahl der metastatischen Knötchen in jedem Organ wurde mit Hilfe eines Bausch-und-Lomb Stereo-Zoom-Mikroskops bestimmt. Die Untersuchung der Kontroll- Mäuse auf metastatische Knötchen ergab bei 100 % der Tiere positive Befunde in bezug auf metastatische Lungentumoren; die Inkubationszeit für die Erzeugung solcher Metastasen betrug für die 3LL-Tumorzellen 17 bis 21 Tage und für die B-16 a -Tumorzellen 23 bis 30 Tage. In Leber, Nieren, Milz oder Gehirn-Gewebe wurden keine sichtbaren Knötchen beobachtet.
3 mg 3-Methyl-1-[2-(2-naphthyloxy)-ethyl]-2-pyrazolin-5-on wurden in 0,6 ml absolutem Ethylalkohol suspendiert. Das suspendierte Pyrazolon wurde durch Einstellen des pH auf 9,5 mit NaOH gelöst. […]

Another experiment deals with Lewis-Lungen-Karzinom. The experiment can be described thus: Tumour incidence and final tumour weight of subcutaneous Lewis lung carcinoma in mice. Particulars: killed day 22. The experiment is classed as in vivo, C57BL/6J Mäuse. An excerpt:
Die antineoplastische Wirksamkeit wurde außerdem durch direkte Messung des Wachstums der Tumorzellen in vitro in Gewebekulturen bestimmt. Diese Methode bedient sich des "Plating" oder Aufimpfens einer bekannten Anzahl von Tumorzellen auf ein Wachstumsmedium und der Bestimmung der Wirkung der Anwesenheit der zu prüfenden Verbindung auf die Tumorzellen-Proliferation. Schließlich wurde die antineoplastische Aktivität in vivo in der Weise bestimmt, daß den Mäusen subkutan Tumorzellen injiziert wurden und das Auftreten von Tumorzellenwachstum sowie das Gewicht der wachsenden Tumorzellen in unbehandelten Kontrolltieren und in mit der Pyrazolon-Verbindung behandelten Tieren bestimmt wurden.
3 mg 3-Methyl-1-[2-(2-naphthyloxy)-ethyl]-2-pyrazolin-5-on wurden in 0,6 ml Ethylalkohol gelöst, und die Lösung wurde mit konzentrierter Natronlauge auf einen pH von 9,5 eingestellt.
Syngeneischen C57BL/6J Wirts-Mäusen wurden 1 x 10^5 Lewis-Lungenkarzinom-Zellen (0,2 ml) subkutan in die Achselhöhlenregion injiziert. Nach einem Zeitraum von 24 Stunden wurde die Pyrazolon-Verbindung 21 Tage lang täglich verabreicht. Die Wirkung der Verabreichung von Theophyllin zusammen mit der Pyrazolon-Verbindung wurde ebenfalls untersucht. Während des Zeitraums wurden die Mäuse unter identischen Bedingungen der Temperatur, Lichteinwirkungsdauer, Ernährung etc. gehalten. Die Mäuse wurden 22 Tage nach der Injektion der Tumorzellen getötet und mittels einer Gesamt-Nekropsie auf die Anwesenheit subkutaner Tumoren untersucht. Vorhandene Tumoren wurden entfernt und auf einer Analysenwaage gewogen.

In the case of `CC(=O)Oc1ccccc1C(=O)O` [Aspirin], the Metastase result in the experiment with Metastase is “gemischte Ergebnisse”.

As for `CCCCC[C@H](O)/C=C/[C@@H]1[C@H]2C/C(=C/CCCC(=O)O)O[C@H]2C[C@H]1O` [Prostacyclin], the Metastase result with B-16a-Melanom-Zellen is recorded as “verhindert werden kann”.

In experiment [1], `Cn1c(=O)c2[nH]cnc2n(C)c1=O` [Theophyllin, reference compound] displayed a Lungen-Tumor-Kolonien of 165 ± 38. The “Tumor-Häufigkeit Anzahl” value with Lewis-Lungen-Karzinom (250 µg Theophyllin daily i.p. in 0,4 ml) was 9/12. The compound further had a Tumor-Häufigkeit % in the experiment on Lewis-Lungen-Karzinom (250 µg Theophyllin daily i.p.) of 75%. The “Gewicht” value in the experiment with Lewis-Lungen-Karzinom (final tumour weight, 250 µg Theophyllin daily i.p.) is 1.58 ± 0.42 mg.

`CC(=O)CC(c1ccccc1)c1c(O)c2ccccc2oc1=O` (stereo not shown) [Warfarin]: the “antimetastatische Wirkungen” value in the experiment with Metastase (after intravenous injection of tumour cells and in spontaneously metastasising tumours) is recorded as “signifikante antimetastatische Wirkungen”.
